Results as given in patent US10434083B2, “Transmammary delivery of cyclooxygenase-2 inhibitors for analgesia in neonates” (Iowa State University Research Foundation, Inc., priority 2018, dated 2019).

Experiment: in vivo
Set-up: species or system swine
Settings: for AUMC / AUMClast / AUCINF / AUC_Exp / AUC∞ extrpl / Lamda_HL / Lamda_Z / λZ / T1/2λZ: both; for Lamda_HL / Lamda_Z / λZ / T1/2λZ: swine
Description: Blood samples for firocoxib determination were collected from the sows and three piglets/litter (two male and one female piglet at each time point) at 0, 2, 4, 6, 8, 12, 24, 48, 72, 96, and 120 h post-drug injection to the sow. The blood sample from each sow (8 mL/sample) was collected via the left or right jugular vein using a 25.4-mm, 16-gauge hypodermic needle (Air-Tite Products, Virginia Beach, Va.) attached to a 12-mL Luer-Lok syringe (TycoHealth Care, Mansfield, Mass.). During blood collection, a pig snare was used for manual restraint of each sow in her crate. The blood samples (2 mL/sample) from the piglets were collected from the left or right cranial vena cava using a 3.8-cm, 20-gauge hypodermic needle (TycoHealth Care, Mansfield, Mass.) attached to a 3-mL syringe (TycoHealth Care, Mansfield, Mass.). Physical restraint of the piglet was achieved by placing the animal in a supine position during sample collection. Blood samples were transferred to 6-mL evacuated tubes that contained lithium heparin (Vacuette plasma tubes, Greiner Bio-One, Monroe, N.C.) that were stored on ice for up to 2 h before processing. The blood samples were centrifuged for 10 min at 1,500×g. The plasma was then removed, placed in cryovials, and frozen at −80° C. until analysis.
On Day 0, the pharmacokinetic portion of the study commenced. The test article was administered intramuscularly in the right neck to sows. Blood samples for Firocoxib determination were collected by jugular venipuncture from sows and 3 piglets/litter (2 male and one female at each timepoint) at 0, 2, 4, 6, 8, 12, 24, 48, 72, 96 and 120 hours after drug injection in the sow.
Plasma concentrations of firocoxib were determined using high-pressure liquid chromatography (Agilent 1100 Pump, Column Compartment and Autosampler, Agilent Technologies, Santa Clara, Calif., USA) with mass spectrometry detection (LTQ Ion Trap, Thermo Scientific, San Jose, Calif., USA). Briefly, frozen samples or standards were thawed at room temperature and rigorously vortexed once completely thawed. […] Plasma samples, plasma spikes, plasma quality control samples, and blanks (100 μL) were then protein-precipitated in 1.5-mL microcentrifuge tubes with 400 μL acetonitrile/0.1% formic acid. A d6-firocoxib internal standard was incorporated into the acetonitrile precipitating agent at a concentration of 200 ng/mL. The samples were vortexed for 5 seconds after addition of the acetonitrile and centrifuged for 20 min at 3,773×g to sediment the protein pellet. Following centrifugation, the supernatant was poured into cell culture tubes and evaporated to dryness in a Turbovap concentration evaporator at 48° C. The tube contents were reconstituted with 150 μL 25% acetonitrile and transferred to autosampler vials equipped with 300-μL glass inserts. The samples were centrifuged at 770×g before liquid chromatography-mass spectroscopy (LC-MS) analysis.
Twelve calibration spikes were prepared in blank porcine plasma in the concentration range of 1-5,000 ng/mL for the samples from the sows. The samples from the piglets were analyzed using a narrower range of calibration spikes of 1-500 ng/mL. A linear (1/X) fit was used for the piglet plasma samples and the narrower 1-500 ng/mL concentration range. A quadratic (1/X) fit was used for the sow plasma samples and the 1-5,000 ng/mL concentration range.
Plasma and tissue firocoxib concentrations were determined using high-pressure liquid chromatography (Agilent 1100 Pump, Column Compartment and Autosampler, Agilent Technologies, Santa Clara, Calif.) with mass spectrometry detection (LTQ Ion Trap, Thermo Scientific, San Jose, Calif.). A 25-μL injection volume was used for the LC-MS analysis. The mobile phases were A (0.1% formic acid in water) and B (0.1% formic acid in acetonitrile), at flow rates of 0.275 mL/min. […]

CC1(C)OC(=O)C(OCC2CC2)=C1c1ccc(S(C)(=O)=O)cc1 [firocoxib] showed an AUC(0-inf) (both sexes, pig, 0.5 mg/kg) of 690 ng·h/mL, an AUC(0-t) (both sexes, pig, 0.5 mg/kg, Piglet AUClast) of 635 ng·h/mL and an AUC(0-inf) (both sexes, pig, 1 mg/kg) of 3180 ng·h/mL. It also gave an AUC(0-t) (both sexes, pig, 1 mg/kg, Piglet AUClast) of 2470 ng·h/mL, an AUC(0-inf) (both sexes, pig, 1.5 mg/kg) of 4620 ng·h/mL and an AUC(0-t) (both sexes, pig, 1.5 mg/kg, Piglet AUClast) of 3900 ng·h/mL. It also gave an AUC(0-inf) (both sexes, pig, 2 mg/kg) of 3650 ng·h/mL, an AUC(0-t) (both sexes, pig, 2 mg/kg, Piglet AUClast) of 3220 ng·h/mL and a half-life (both sexes, pig, im) of 30.9 to 48.7 h. The AUC(0-inf) (both sexes, pig, im, 0.5 mg/kg) was 690 ng·h/mL, the Cmax (both sexes, pig, im, 0.5 mg/kg) was 9.53 ng/mL and the Tmax (both sexes, pig, im, 0.5 mg/kg) was 24 h. It also gave an AUC(0-t) (both sexes, pig, im, 0.5 mg/kg, AUC 0-24 h) of 176 ng·h/mL, an AUC(0-t) (both sexes, pig, im, 0.5 mg/kg, AUC0-24h) of 176 ng·h/mL and an AUC(0-t) (both sexes, pig, im, 0.5 mg/kg, AUC0-last) of 635 ng·h/mL. For the same compound, the AUC(0-t) (both sexes, pig, im, 0.5 mg/kg, AUClast) was 635 ng·h/mL, the MRT last (both sexes, pig, im, 0.5 mg/kg, MRT0-last) was 44.8 h and the MRT last (both sexes, pig, im, 0.5 mg/kg, MRT last) was 44.8 h. The AUC(0-inf) (both sexes, pig, im, 1 mg/kg) was 3180 ng·h/mL, the Cmax (both sexes, pig, im, 1 mg/kg) was 31 ng/mL and the Tmax (both sexes, pig, im, 1 mg/kg) was 24 h. It also gave an AUC(0-t) (both sexes, pig, im, 1 mg/kg, AUC 0-24 h) of 407 ng·h/mL, an AUC(0-t) (both sexes, pig, im, 1 mg/kg, AUC0-24h) of 407 ng·h/mL and an AUC(0-t) (both sexes, pig, im, 1 mg/kg, AUC0-last) of 2470 ng·h/mL. It also gave an AUC(0-t) (both sexes, pig, im, 1 mg/kg, AUClast) of 2470 ng·h/mL, an MRT last (both sexes, pig, im, 1 mg/kg, MRT0-last) of 55.4 h and an MRT last (both sexes, pig, im, 1 mg/kg, MRT last) of 55.4 h. For the same compound, the AUC(0-inf) (both sexes, pig, im, 1.5 mg/kg) was 4620 ng·h/mL, the Cmax (both sexes, pig, im, 1.5 mg/kg) was 53.3 ng/mL and the Tmax (both sexes, pig, im, 1.5 mg/kg) was 24 h. The AUC(0-t) (both sexes, pig, im, 1.5 mg/kg, AUC 0-24 h) was 662 ng·h/mL, the AUC(0-t) (both sexes, pig, im, 1.5 mg/kg, AUC0-24h) was 662 ng·h/mL and the AUC(0-t) (both sexes, pig, im, 1.5 mg/kg, AUC0-last) was 3900 ng·h/mL. It also gave an AUC(0-t) (both sexes, pig, im, 1.5 mg/kg, AUClast) of 3900 ng·h/mL, an MRT last (both sexes, pig, im, 1.5 mg/kg, MRT0-last) of 54.4 h and an MRT last (both sexes, pig, im, 1.5 mg/kg, MRT last) of 52.4 h. The AUC(0-inf) (both sexes, pig, im, 2 mg/kg) was 3650 ng·h/mL, the Cmax (both sexes, pig, im, 2 mg/kg) was 44 ng/mL and the Tmax (both sexes, pig, im, 2 mg/kg) was 24 h. It also gave an AUC(0-t) (both sexes, pig, im, 2 mg/kg, AUC 0-24 h) of 609 ng·h/mL, an AUC(0-t) (both sexes, pig, im, 2 mg/kg, AUC0-24h) of 609 ng·h/mL and an AUC(0-t) (both sexes, pig, im, 2 mg/kg, AUC0-last) of 3220 ng·h/mL. It also gave an AUC(0-t) (both sexes, pig, im, 2 mg/kg, AUClast) of 3220 ng·h/mL, an MRT last (both sexes, pig, im, 2 mg/kg, MRT0-last) of 51.5 h and an MRT last (both sexes, pig, im, 2 mg/kg, MRT last) of 51.5 h. The AUMC (pig, 0.5 mg/kg) was 28433.00 h^2 × ng/mL, the AUMClast (pig, 0.5 mg/kg) was 28,443.00 h * h * ng/mL and the AUMC (pig, 1 mg/kg) was 136805.00 h^2 × ng/mL. The AUMClast (pig, 1 mg/kg) was 136,805.00 h * h * ng/mL, the AUMC (pig, 1.5 mg/kg) was 204246.00 h^2 × ng/mL and the AUMClast (pig, 1.5 mg/kg) was 204,246.00 h * h * ng/mL. For the same compound, the AUMC (pig, 2 mg/kg) was 166016.00 h^2 × ng/mL, the AUMClast (pig, 2 mg/kg) was 166,016.00 h * h * ng/mL and the AUCINF (pig, im, 0.5 mg/kg) was 690.47 ng·h/mL. The AUC_Exp (pig, im, 0.5 mg/kg) was 0.08%, the “AUC∞ extrpl” value (pig, im, 0.5 mg/kg) was 0.08% and the AUCINF (pig, im, 1 mg/kg) was 3178.00 ng·h/mL. The AUC_Exp (pig, im, 1 mg/kg) was 0.22%, the “AUC∞ extrpl” value (pig, im, 1 mg/kg) was 0.22% and the AUCINF (pig, im, 1.5 mg/kg) was 4615.17 ng·h/mL. The AUC_Exp (pig, im, 1.5 mg/kg) was 0.16%, the “AUC∞ extrpl” value (pig, im, 1.5 mg/kg) was 0.16% and the AUCINF (pig, im, 2 mg/kg) was 3652.32 ng·h/mL. For the same compound, the AUC_Exp (pig, im, 2 mg/kg) was 0.12%, the “AUC∞ extrpl” value (pig, im, 2 mg/kg) was 0.12% and the Lamda_HL (0.5 mg/kg) was 30.86 h. For the same compound, the Lamda_Z (0.5 mg/kg) was 0.02 h⁻¹, the λZ (0.5 mg/kg) was 0.02 h⁻¹ and the Lamda_HL (1 mg/kg) was 48.71 h. The Lamda_Z (1 mg/kg) was 0.01 h⁻¹, the λZ (1 mg/kg) was 0.01 h⁻¹ and the Lamda_HL (1.5 mg/kg) was 37.91 h. It also gave a Lamda_Z (1.5 mg/kg) of 0.02 h⁻¹, a λZ (1.5 mg/kg) of 0.05 h⁻¹ and a Lamda_HL (2 mg/kg) of 32.42 h. For the same compound, the Lamda_Z (2 mg/kg) was 0.02 h⁻¹, the λZ (2 mg/kg) was 0.02 h⁻¹ and the T1/2λZ (im, 0.5 mg/kg) was 30.86 h. The T1/2λZ (im, 1 mg/kg) was 48.71 h, the T1/2λZ (im, 1.5 mg/kg) was 37.91 h and the T1/2λZ (im, 2 mg/kg) was 32.42 h.
